Values quoted from earlier work in US20240115547A1, “PSYCHOTROPIC AGENTS AND USES THEREOF” (LB PHARMACEUTICALS INC., priority 2021, published 2024).

Columns and labels:
Striatal D2/D3 Receptor = details: in vivo; cited from earlier work
D5 receptor subtype = D5 receptor subtype (Homo sapiens, UniProt P21918); details: cited from earlier work
[1] = administration of 50 mg amisulpride, previously published (FIG. 4A); cited from earlier work
D4 receptor subtype = biological target: T1, D4 receptor subtype (Homo sapiens, UniProt P21917); details: cited from earlier work
T1 sequence (P21917 1-419): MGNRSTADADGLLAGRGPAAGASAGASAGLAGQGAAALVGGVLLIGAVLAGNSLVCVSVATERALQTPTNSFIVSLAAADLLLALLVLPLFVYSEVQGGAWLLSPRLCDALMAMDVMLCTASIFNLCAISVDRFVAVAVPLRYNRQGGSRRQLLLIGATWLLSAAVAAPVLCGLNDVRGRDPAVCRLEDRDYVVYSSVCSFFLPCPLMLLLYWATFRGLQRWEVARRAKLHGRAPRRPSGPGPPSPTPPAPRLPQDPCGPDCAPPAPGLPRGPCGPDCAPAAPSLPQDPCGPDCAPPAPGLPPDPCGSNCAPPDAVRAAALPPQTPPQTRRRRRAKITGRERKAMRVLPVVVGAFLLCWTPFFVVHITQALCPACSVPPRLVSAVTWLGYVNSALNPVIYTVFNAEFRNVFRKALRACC

D1 receptor subtype = D1 receptor subtype (Homo sapiens, UniProt P21728); details: cited from earlier work
[2] = 2014 study; cited from earlier work
5-HT2a receptor = 5-HT2a receptor (Homo sapiens, UniProt P28223); details: compared to other antipsychotics; cited from earlier work
5-HT2a receptor, sequence (P28223 whole entry): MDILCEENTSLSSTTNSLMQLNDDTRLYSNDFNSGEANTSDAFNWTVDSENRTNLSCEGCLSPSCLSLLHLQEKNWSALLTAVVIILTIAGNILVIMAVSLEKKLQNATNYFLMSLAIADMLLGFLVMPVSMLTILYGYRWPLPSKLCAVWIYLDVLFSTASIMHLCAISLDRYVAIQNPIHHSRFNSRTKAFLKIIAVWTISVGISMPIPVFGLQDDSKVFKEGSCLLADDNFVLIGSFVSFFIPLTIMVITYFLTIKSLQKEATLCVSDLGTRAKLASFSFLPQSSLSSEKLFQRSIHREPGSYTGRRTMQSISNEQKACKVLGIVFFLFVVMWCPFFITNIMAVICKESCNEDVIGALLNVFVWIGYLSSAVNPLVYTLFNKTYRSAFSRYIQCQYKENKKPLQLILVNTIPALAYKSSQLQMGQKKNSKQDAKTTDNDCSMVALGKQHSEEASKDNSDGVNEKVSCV

D5 receptor subtype, sequence (P21918 whole entry): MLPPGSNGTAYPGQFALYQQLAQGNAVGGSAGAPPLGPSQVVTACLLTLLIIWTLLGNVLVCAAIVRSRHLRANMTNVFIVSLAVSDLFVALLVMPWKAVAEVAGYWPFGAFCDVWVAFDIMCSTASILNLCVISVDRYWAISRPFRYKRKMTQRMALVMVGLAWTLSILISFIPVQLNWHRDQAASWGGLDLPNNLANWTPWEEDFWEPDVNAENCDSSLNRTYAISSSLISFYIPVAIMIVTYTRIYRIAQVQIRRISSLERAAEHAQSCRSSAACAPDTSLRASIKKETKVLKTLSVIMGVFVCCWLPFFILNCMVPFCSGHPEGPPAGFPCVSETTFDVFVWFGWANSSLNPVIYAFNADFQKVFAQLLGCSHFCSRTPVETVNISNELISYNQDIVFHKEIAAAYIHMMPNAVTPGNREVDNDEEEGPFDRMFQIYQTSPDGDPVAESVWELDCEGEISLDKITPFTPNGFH
D1 receptor subtype, sequence (P21728 whole entry): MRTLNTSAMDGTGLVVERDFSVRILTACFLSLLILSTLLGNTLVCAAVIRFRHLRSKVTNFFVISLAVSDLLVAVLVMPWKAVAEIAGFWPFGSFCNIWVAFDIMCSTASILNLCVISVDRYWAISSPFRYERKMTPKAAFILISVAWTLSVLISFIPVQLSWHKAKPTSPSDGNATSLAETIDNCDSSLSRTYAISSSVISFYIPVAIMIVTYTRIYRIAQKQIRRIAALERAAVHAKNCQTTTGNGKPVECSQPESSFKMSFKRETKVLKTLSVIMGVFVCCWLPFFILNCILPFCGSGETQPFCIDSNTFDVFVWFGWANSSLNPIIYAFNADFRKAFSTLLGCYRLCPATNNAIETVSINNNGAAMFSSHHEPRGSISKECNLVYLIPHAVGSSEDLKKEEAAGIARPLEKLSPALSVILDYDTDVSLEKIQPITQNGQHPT

CCN1CCCC1CNC(=O)c1cc(S(=O)(=O)CC)c(N)cc1OC (stereo not shown) [amisulpride, 4-amino-N-(((1-ethyl-2-pyrrolidinyl)methyl)-5-(ethylsulfonyl))-2-methoxybenzamide]
dose required for 75% dopamine (e.g., D2/D3) RO (Striatal D2/D3 Receptor): more than 400 mg | affinity for D5 receptor subtype (D5 receptor subtype): without any affinity | AUC [1]: 603 ngh/mL | affinity for D4 receptor subtype (D4 receptor subtype): without any affinity | affinity for D1 receptor subtype (D1 receptor subtype): without any affinity | passive diffusion across a PAMPA membrane (measured as Pe) [2]: lowest of 30 psychiatric drugs tested | activity at the 5-HT2a receptor (5-HT2a receptor): not noted to have any activity
